Results: patent US11458189B2, “Cytoprotective drugs” (BALMES TRANSPLANTATION, priority 2017, dated 2022)

System: Sprague Dawley rats
Assay: Survival in acute renal failure model (unilateral renal ischemia-reperfusion with contralateral nephrectomy)
Type: in vivo, rat
Details: Allopurinol 3 mg/kg single iv injection 60 min before ischemia; up to 7 days after reperfusion; control group 29%
Description: The protocol is similar to the one described by Narayan P et al, Am J Physiol Renal Physiol, 311(2):F352-61, 2016 and was approved by an ethics committee. In summary, general anesthesia is induced in male Sprague Dawley rats (250-300 g) using sodium pentobarbital (60 mg/kg, ip) instead of ketamine/xylazine in the protocol described by Narayan P et al, Am J Physiol Renal Physiol, 311 (2): F352-61, 2016. A skin incision is made on the dorsal surface and the left kidney is exposed by incisions on the flank. The left renal pedicle is then isolated and clamped for 60 minutes using atraumatic vascular clamps. The kidneys are replaced in the abdominal cavity to maintain temperature and the incision is covered with gauze soaked in 0.9% saline. After the ischemia time (60 minutes), the clamps are released to begin reperfusion. Reperfusion is monitored (kidney color change) for 1 to 2 minutes and physiological saline (1 mL) is administered to prevent dehydration. Next, a right kidney nephrectomy is performed and the incisions are closed with sutures. The animals are kept at approximately 37° C. using a thermoregulated system during the operation. Buprenorphine (0.2 mg/kg sc) is administered before the animals are returned to their cages and once a day until 4 days after reperfusion. […]
The compounds Micafungin (0.25 mg/kg), Anidulafungin (0.35 mg/kg) or the combination of the compounds Micafungin (0.25 mg/kg) and Allopurinol (3 mg/kg) are administered solubilized in physiological saline as a single intravenous injection into the tail vein 60 (±15) minutes before the onset of ischemia. The volume of administration of the compounds is determined on the basis of the body weight (2 mL/kg) of each animal. […]
For each experiment the curve of the number of surviving animals versus the number of days post-ischemia-reperfusion (Kaplan-Meier curve) is shown. The x-axis is graduated from the first day =0 to the seventh day =6 The y-axis is graduated from 0% to 100% of the initial population of the analyzed group. […]

Oc1ncnc2[nH]ncc12 [Allopurinol]
Surviving animals at end of Kaplan-Meier curve (% of initial population of the group): 63%
